Measurements from patent publication US5091367A, “Analogs of gonadoliberin with improved solubility, methods for their preparation, agents containing them and their use” (Hoechst Aktiengesellschaft, priority 1986, dated 1992).
In brackets after ≈: the same amount, converted by molar mass.

Experiments:
[1] = solubility in a neutral buffer used for nasal application; details: well compatible neutral buffer as used for nasal application of protirelin
rat super-ovulation = test: biological activity in rat super-ovulation; format: in vivo
Serum testosterone = test: serum testosterone after Gn-RH antagonist (Table 2); format: in vivo; details: untreated control 3.63 ± 0.59
Source text: The Gn-RH antagonists according to the invention have an inhibitory effect on the formation of lutropin and follitropin and, as a result, also on the synthesis of testosterone and estrogen (see Table 2). They can be employed as high-dose Gn-RH […] in gonadotropin- and steroid-dependent diseases.

Molecule	Solubility in neutral nasal buffer [1]	ED20-50 Super-ovul. (rat super-ovulation)	Serum testosterone (Serum testosterone)
CCNC(=O)[C@@H]1CCCN1C(=O)[C@H](CCCNC(=N)N)NC(=O)[C@H](CC(C)C)NC(=O)[C@@H](COC(C)(C)C)NC(=O)[C@H](Cc1ccc(O)cc1)NC(=O)[C@H](CO)NC(=O)[C@H](Cc1c[nH]c2ccccc12)NC(=O)[C@H](Cc1cnc[nH]1)NC(=O)[C@@H]1CCC(=O)N1 [Buserelin, Pgl--His--Trp--Ser--Tyr--D-Ser(tBu)--Leu--Arg--Pro--NH--C2 H5, reference compound]	1250 µg/mL (≈ 1010 µM)	3 ng/rat	–
CCNC(=O)[C@@H]1CCCN1C(=O)[C@H](CCCNC(=N)N)NC(=O)[C@H](CC(C)C)NC(=O)[C@@H](Cc1c[nH]c2ccccc12)NC(=O)[C@H](Cc1ccc(O)cc1)NC(=O)[C@H](CO)NC(=O)[C@H](Cc1c[nH]c2ccccc12)NC(=O)[C@H](Cc1c[nH]cn1)NC(=O)[C@@H]1CCC(=O)N1 [LH--RH--T, Pgl--His--Trp--Ser--Tyr--D-Trp--Leu--Arg--Pro--NH--C2 H5, reference compound]	–	3 ng/rat	–
CCNC(=O)[C@@H]1CCCN1C(=O)[C@H](CCCNC(=N)N)NC(=O)[C@H](CC(C)C)NC(=O)[C@@H](CO[C@H]1O[C@H](CO)[C@@H](O)[C@H](O)[C@@H]1O)NC(=O)[C@H](Cc1ccc(O)cc1)NC(=O)[C@H](CO)NC(=O)[C@H](Cc1c[nH]c2ccccc12)NC(=O)[C@H](Cc1c[nH]cn1)NC(=O)[C@@H]1CCC(=O)N1 [Pgl-His-Trp-Ser-Tyr-D-Ser(α-D-Man)-Leu-Arg-Pro-NH-C2 H5]	62500 µg/mL (≈ 46500 µM)	6 ng/rat	–
CCNC(=O)[C@@H]1CCCN1C(=O)[C@H](CCCNC(=N)N)NC(=O)[C@H](CC(C)C)NC(=O)[C@@H](CO[C@@H]1O[C@H](CO)[C@@H](O)[C@H](O)[C@H]1O)NC(=O)[C@H](Cc1ccc(O)cc1)NC(=O)[C@H](CO)NC(=O)[C@H](Cc1c[nH]c2ccccc12)NC(=O)[C@H](Cc1c[nH]cn1)NC(=O)[C@@H]1CCC(=O)N1 [Pgl-His-Trp-Ser-Tyr-D-Ser(β-D-Glc)-Leu-Arg-Pro-NH-C2 H5]	125000 µg/mL (≈ 92900 µM)	12 ng/rat	–
CCNC(=O)[C@@H]1CCCN1C(=O)[C@H](CCCNC(=N)N)NC(=O)[C@H](CC(C)C)NC(=O)[C@@H](CO[C@H]1O[C@@H](C)[C@@H](O)[C@@H](O)[C@@H]1O)NC(=O)[C@H](Cc1ccc(O)cc1)NC(=O)[C@H](CO)NC(=O)[C@H](Cc1c[nH]c2ccccc12)NC(=O)[C@H](Cc1c[nH]cn1)NC(=O)[C@@H]1CCC(=O)N1 [Pgl-His-Trp-Ser-Tyr-D-Ser(β-L-Fuc)-Leu-Arg-Pro-NH-C2 H5]	167000 µg/mL (≈ 126000 µM)	6 ng/rat	–
CCNC(=O)[C@@H]1CCCN1C(=O)[C@H](CCCNC(=N)N)NC(=O)[C@H](CO[C@H]1O[C@H](CO)[C@@H](O)[C@H](O)[C@@H]1O)NC(=O)[C@@H](Cc1c[nH]c2ccccc12)NC(=O)[C@H](Cc1ccc(O)cc1)NC(=O)[C@H](CO)NC(=O)[C@H](Cc1c[nH]c2ccccc12)NC(=O)[C@H](Cc1c[nH]cn1)NC(=O)[C@@H]1CCC(=O)N1 [Pgl-His-Trp-Ser-Tyr-D-Trp-Ser(α-D-Man)-Arg-Pro-NH-C2 H5]	3300 µg/mL (≈ 2330 µM)	> 24 ng/rat	–
CCNC(=O)[C@@H]1CCCN1C(=O)[C@H](CCCNC(=N)N)NC(=O)[C@H](CO[C@@H]1O[C@H](CO)[C@@H](O)[C@H](O)[C@H]1O)NC(=O)[C@@H](Cc1c[nH]c2ccccc12)NC(=O)[C@H](Cc1ccc(O)cc1)NC(=O)[C@H](CO)NC(=O)[C@H](Cc1c[nH]c2ccccc12)NC(=O)[C@H](Cc1c[nH]cn1)NC(=O)[C@@H]1CCC(=O)N1 [Pgl-His-Trp-Ser-Tyr-D-Trp-Ser(β-D-Glc)-Arg-Pro-NH-C2 H5]	2500 µg/mL (≈ 1760 µM)	6 ng/rat	–
CCNC(=O)[C@@H]1CCCN1C(=O)[C@H](CCCNC(=N)N)NC(=O)[C@H](CO[C@H]1O[C@@H](C)[C@@H](O)[C@@H](O)[C@@H]1O)NC(=O)[C@@H](Cc1c[nH]c2ccccc12)NC(=O)[C@H](Cc1ccc(O)cc1)NC(=O)[C@H](CO)NC(=O)[C@H](Cc1c[nH]c2ccccc12)NC(=O)[C@H](Cc1c[nH]cn1)NC(=O)[C@@H]1CCC(=O)N1 [Pgl-His-Trp-Ser-Tyr-D-Trp-Ser(β-L-Fuc)-Arg-Pro-NH-C2 H5]	2500 µg/mL (≈ 1780 µM)	> 200 ng/rat	–
Ac-D-Nal-p-Cl-D-Phe-D-Trp-Ser-Arg-D-Ser(α-L-Rha)-Leu Arg-Pro-Azagly-NH2	–	–	2.27 ± 0.28 ng/mL
Ac-D-Nal-p-Cl-D-Phe-D-Trp-Ser-His-D-Ser(α-L-Rha)-Leu-Arg-Pro-Azagly-N H2	–	–	1.34 ± 0.17 ng/mL
Ac-D-Nal-p-Cl-D-Phe-D-Trp-Ser-Tyr-D-Ser(α-L-Rha)-Leu-Arg-Pro-Azagly-N H2	–	–	2.30 ± 0.47 ng/mL
Pgl--His--Trp--Ser--Tyr--D-Trp--Ser(β-D-Gal)--Arg--Pro--NH--C2 H5	10000 µg/mL	–	–
Pgl-His-Trp-Ser-Tyr-D-Ser(Ac-α-L-Rha)-Leu-Arg-Pro-NH-C2 H5	50000 µg/mL	3 ng/rat	–
Pgl-His-Trp-Ser-Tyr-D-Ser(Ac-β-L-Fuc)-Leu-Arg-Pro-NH-C2 H5	10000 µg/mL	6 ng/rat	–
Pgl-His-Trp-Ser-Tyr-D-Ser(D-Ara)-Leu-Arg-Pro-NH-C2 H5	125000 µg/mL	< 24 ng/rat	–
Pgl-His-Trp-Ser-Tyr-D-Ser(D-Rib)-Leu-Arg-Pro-NH-C2 H5	10000 µg/mL	< 6 ng/rat	–
Pgl-His-Trp-Ser-Tyr-D-Ser(L-Ara)-Leu-Arg-Pro-NH-C2 H5	125000 µg/mL	12 ng/rat	–
Pgl-His-Trp-Ser-Tyr-D-Ser(α-L-Rha)-Leu-Arg-Pro-NH-C2 H5	167000 µg/mL	3 ng/rat	–
Pgl-His-Trp-Ser-Tyr-D-Ser(β-D-Gal)-Leu-Arg-Pro-NH-C2 H5	125000 µg/mL	12 ng/rat	–

Molecule	Solubility in neutral nasal buffer [1]	ED20-50 Super-ovul. (rat super-ovulation)	Serum testosterone (Serum testosterone)
Pgl-His-Trp-Ser-Tyr-D-Ser(β-D-Glc-NAc)-Leu-Arg-Pro-NH-C2 H5	125000 µg/mL	< 6 ng/rat	–
Pgl-His-Trp-Ser-Tyr-D-Ser(β-D-Xyl)-Leu-Arg-Pro-NH-C2 H5	50000 µg/mL	6 ng/rat	–
Pgl-His-Trp-Ser-Tyr-D-Ser(β-L-Xyl)-Leu-Arg-Pro-NH-C2 H5	10000 µg/mL	6 ng/rat	–
Pgl-His-Trp-Ser-Tyr-D-Ser(β-Lac)-Leu-Arg-Pro-NH-C2 H5	167000 µg/mL	12 ng/rat	–
Pgl-His-Trp-Ser-Tyr-D-Trp-Ser(Ac2 -α-D-Man)-Arg-Pro-NH-C2 H5	10000 µg/mL	> 24 ng/rat	–
Pgl-His-Trp-Ser-Tyr-D-Trp-Ser(Ac2 -β-L-Fuc)-Arg-Pro-NH-C2 H5	3300 µg/mL	200 ng/rat	–
Pgl-His-Trp-Ser-Tyr-D-Trp-Ser(Ac-α-D-Man)-Arg-Pro-NH-C2 H5	10000 µg/mL	> 24 ng/rat	–
Pgl-His-Trp-Ser-Tyr-D-Trp-Ser(Ac-α-L-Rha)-Arg-Pro-NH-C2 H5	500 µg/mL	> 24 ng/rat	–
Pgl-His-Trp-Ser-Tyr-D-Trp-Ser(Ac-β-D-Glc)-Arg-Pro-NH-C2 H5	2500 µg/mL	5 ng/rat	–
Pgl-His-Trp-Ser-Tyr-D-Trp-Ser(Ac-β-D-Xyl)-Arg-Pro-NH-C2 H5	2500 µg/mL	6 ng/rat	–
Pgl-His-Trp-Ser-Tyr-D-Trp-Ser(Ac-β-L-Fuc)-Arg-Pro-NH-C2 H5	10000 µg/mL	200 ng/rat	–
Pgl-His-Trp-Ser-Tyr-D-Trp-Ser(D-Ara)-Arg-Pro-NH-C2 H5	5000 µg/mL	24 ng/rat	–
Pgl-His-Trp-Ser-Tyr-D-Trp-Ser(D-Rib)-Arg-Pro-NH-C2 H5	25000 µg/mL	< 24 ng/rat	–
Pgl-His-Trp-Ser-Tyr-D-Trp-Ser(L-Ara)-Arg-Pro-NH-C2 H5	1250 µg/mL	48 ng/rat	–
Pgl-His-Trp-Ser-Tyr-D-Trp-Ser(α-L-Rha)-Arg-Pro-NH-C2 H5	1400 µg/mL	> 24 ng/rat	–
Pgl-His-Trp-Ser-Tyr-D-Trp-Ser(β-D-Glc-NAc)-Arg-Pro-NH-C2 H5	125000 µg/mL	> 24 ng/rat	–
Pgl-His-Trp-Ser-Tyr-D-Trp-Ser(β-D-Xyl)-Arg-Pro-NH-C2 H5	1700 µg/mL	6 ng/rat	–
Pgl-His-Trp-Ser-Tyr-D-Trp-Ser(β-L-Xyl)-Arg-Pro-NH-C2 H5	1100 µg/mL	48 ng/rat	–
Pgl-His-Trp-Ser-Tyr-D-Trp-Ser(β-Lac)-Arg-Pro-NH-C2 H5	167000 µg/mL	< 48 ng/rat	–
